System: healthy subjects
Assay: Life Changes Inventory (LCI)
Format: in vivo, human
Description: In some embodiments, the Life Changes Inventory (LCI) questionnaire is utilized to evaluate the safety and/or efficacy of psilocybin. The LCI is designed as a questionnaire to investigate those variables present in the day-to-day experience of adults that might relate either to stability or decline of intellectual ability.
The following list of outcome measures are non-exhaustive. • a. The short-term change from Baseline (Day −1 [Visit 2]) to Day 7 (Visit 5) in cognitive measures of attention, spatial and working memory and executive function was measured by a composite score of the CANTAB Panel (Spatial Working Memory [SWM], Rapid Visual Information Processing [RVP], Paired Associates Learning [PAL]). • b. The short-term change from Baseline (Day −1 [Visit 2]) to Day 7 (Visit 5) in Social Cognition Panel scales (Pictorial Empathy Test [PET], Reading the Mind in the Eyes Test [RMET], Toronto Empathy Questionnaire [TEQ], Social Value Orientation [SVO], Scale of Social Responsibility [SSR]). • c. The change from Baseline (Day −1 [Visit 2]) to Day 28 (Visit 6) in cognitive measures of attention, spatial and working memory and executive function as measured by a composite score of the CANTAB Panel (SWM, RVP, PAL). • d. The long-term change from Baseline (Day −1 [Visit 2]) to Day 84 (Visit 7) in Social Cognition Panel scales (PET, RMET, TEQ, SVO, SSR). • e. Dose-related differences between cognitive effects of psilocybin at Baseline (Day −1 [Visit 2]), Day 7 (Visit 5) and Day 28 (Visit 6), as measured by a composite score of the CANTAB Panel (SWM, RVP, PAL). • f. Dose-related differences between psychological effects of psilocybin at Baseline (Day −1 [Visit 2]), Day 7 (Visit 5) and Day 84 (Visit 7), as measured by Social Cognition Panel scales (PET, RMET, TEQ, SVO, SSR). • g. Differences in cognitive effects of psilocybin between psilocybin-naïve and experienced subjects at Baseline (Day −1 [Visit 2]), Day 7 (Visit 5) and Day 28 (Visit 6), as measured by a composite score of the CANTAB Panel (SWM, RVP, PAL). • h. Differences in Positive and Negative Affect Schedule (PANAS) after study drug administration on Day 0 (Visit 3). • i. Differences between psilocybin and placebo in the Emotion Recognition Test (ERT), Intra-Extra Dimensional Set Shift (IED), One Touch Stockings (OTS), Verbal Fluency and Digit Span Forward at Day 7 (Visit 5). • j. A composite score of the CANTAB Panel, including the following tests: • i. Spatial Working Memory (SWM) (performed at Visit 2, Visit 5, and Visit 6). • ii. Rapid Visual Information Processing (RVP) (performed at Visit 2, Visit 5, and Visit 6). • iii. Paired Associates Learning (PAL) (performed at Visit 2, Visit 5, and Visit 6). • k. Cognitive Flexibility Panel • i. Emotion Recognition Task (ERT) (performed at Visit 5). • ii. Intra-Extra Dimensional Set Shift (IED) (performed at Visit 5). • iii. One Touch Stockings (OTS) (performed at Visit 5). • iv. Verbal Fluency (performed at Visit 5). • v. Digit Span Forward (performed at Visit 5). • l. Five Dimension Altered States of Consciousness questionnaire (5D-ASC) (performed at Visit 3). • m. PANAS (performed at Visit 2 and Visit 3). • n. NEO-Five Factor Inventory (NEO-FFI) (performed at Visit 2, Visit 5, and Visit 7). • o. Symptom Checklist-90 item (SCL-90) (performed at Visit 2, Visit 5, and Visit 7). • p. Life Changes Inventory (LCI): The LCI measures changes in attitudes and values after near-death experiences often used to evaluate personal transformation following spiritually oriented experiences and practices. (performed at Visit 5 and Visit 7). • q. Social Cognition Panel scales • i. Pictorial Empathy Test (PET) (performed at Visit 2, Visit 5, and Visit 7). • ii. Reading the Mind in the Eyes Test (RMET) (performed at Visit 2, Visit 5, and Visit 7). • iii. Social Value Orientation (SVO) (performed at Visit 2, Visit 5, and Visit 7). • iv. Toronto Empathy Questionnaire (TEQ) (performed at Visit 2, Visit 5, and Visit 7). • v. […]

With `CN(C)CCc1c[nH]c2cccc(OP(=O)(O)O)c12` [Psilocybin, psilocybin] the “LCI appreciation for life, LS mean difference Psilocybin 10 mg-Placebo” value (Day 7) was 0.6, the “LCI appreciation for life, LS mean difference Psilocybin 25 mg-Placebo” value (Day 7) was 0.5 and the “LCI appreciation for life, LS mean difference Psilocybin (25 mg-10 mg)” value (Day 7) was −0.2. The “LCI appreciation of death, LS mean difference Psilocybin 10 mg-Placebo” value (Day 7) was 0.1, the “LCI appreciation of death, LS mean difference Psilocybin 25 mg-Placebo” value (Day 7) was 0.1 and the “LCI appreciation of death, LS mean difference Psilocybin (25 mg-10 mg)” value (Day 7) was −0.0. The “LCI concern for others, LS mean difference Psilocybin 10 mg-Placebo” value (Day 7) was 0.4, the “LCI concern for others, LS mean difference Psilocybin 25 mg-Placebo” value (Day 7) was 0.4 and the “LCI concern for others, LS mean difference Psilocybin (25 mg-10 mg)” value (Day 7) was 0.0. For the same molecule, the “LCI concern for worldly achievement, LS mean difference Psilocybin 10 mg-Placebo” value (Day 7) was −0.2, the “LCI concern for worldly achievement, LS mean difference Psilocybin 25 mg-Placebo” value (Day 7) was −0.1 and the “LCI concern for worldly achievement, LS mean difference Psilocybin (25 mg-10 mg)” value (Day 7) was 0.1. The “LCI concern social, LS mean difference Psilocybin 10 mg-Placebo” value (Day 7) was 0.1, the “LCI concern social, LS mean difference Psilocybin 25 mg-Placebo” value (Day 7) was 0.2 and the “LCI concern social, LS mean difference Psilocybin (25 mg-10 mg)” value (Day 7) was 0.1. For the same molecule, the “LCI quest for meaning, LS mean difference Psilocybin 10 mg-Placebo” value (Day 7) was 0.4, the “LCI quest for meaning, LS mean difference Psilocybin 25 mg-Placebo” value (Day 7) was 0.4 and the “LCI quest for meaning, LS mean difference Psilocybin (25 mg-10 mg)” value (Day 7) was 0.0. For the same molecule, the “LCI religiousness, LS mean difference Psilocybin 10 mg-Placebo” value (Day 7) was −0.1, the “LCI religiousness, LS mean difference Psilocybin 25 mg-Placebo” value (Day 7) was 0.0 and the “LCI religiousness, LS mean difference Psilocybin (25 mg-10 mg)” value (Day 7) was 0.1. The “LCI self-acceptance, LS mean difference Psilocybin 10 mg-Placebo” value (Day 7) was 0.7, the “LCI self-acceptance, LS mean difference Psilocybin 25 mg-Placebo” value (Day 7) was 0.5 and the “LCI self-acceptance, LS mean difference Psilocybin (25 mg-10 mg)” value (Day 7) was −0.1. For the same molecule, the “LCI spirituality, LS mean difference Psilocybin 10 mg-Placebo” value (Day 7) was 0.3, the “LCI spirituality, LS mean difference Psilocybin 25 mg-Placebo” value (Day 7) was 0.2 and the “LCI spirituality, LS mean difference Psilocybin (25 mg-10 mg)” value (Day 7) was −0.1. For the same molecule, the “LCI-absolute change, LS mean difference Psilocybin 10 mg-Placebo” value (Day 7) was 0.4, the “LCI-absolute change, LS mean difference Psilocybin 25 mg-Placebo” value (Day 7) was 0.3 and the “LCI-absolute change, LS mean difference Psilocybin (25 mg-10 mg)” value (Day 7) was −0.1. The “LCI appreciation for life, LS mean difference Psilocybin 10 mg-Placebo” value (Day 84) was 0.6, the “LCI appreciation for life, LS mean difference Psilocybin 25 mg-Placebo” value (Day 84) was 0.5 and the “LCI appreciation for life, LS mean difference Psilocybin (25 mg-10 mg)” value (Day 84) was −0.1. The “LCI appreciation of death, LS mean difference Psilocybin 10 mg-Placebo” value (Day 84) was 0.2, the “LCI appreciation of death, LS mean difference Psilocybin 25 mg-Placebo” value (Day 84) was 0.2 and the “LCI appreciation of death, LS mean difference Psilocybin (25 mg-10 mg)” value (Day 84) was 0.0. The “LCI concern for others, LS mean difference Psilocybin 10 mg-Placebo” value (Day 84) was 0.4, the “LCI concern for others, LS mean difference Psilocybin 25 mg-Placebo” value (Day 84) was 0.5 and the “LCI concern for others, LS mean difference Psilocybin (25 mg-10 mg)” value (Day 84) was 0.1. For the same molecule, the “LCI concern for worldly achievement, LS mean difference Psilocybin 10 mg-Placebo” value (Day 84) was −0.2, the “LCI concern for worldly achievement, LS mean difference Psilocybin 25 mg-Placebo” value (Day 84) was −0.1 and the “LCI concern for worldly achievement, LS mean difference Psilocybin (25 mg-10 mg)” value (Day 84) was 0.1. The “LCI concern social, LS mean difference Psilocybin 10 mg-Placebo” value (Day 84) was 0.1, the “LCI concern social, LS mean difference Psilocybin 25 mg-Placebo” value (Day 84) was 0.1 and the “LCI concern social, LS mean difference Psilocybin (25 mg-10 mg)” value (Day 84) was 0.0. For the same molecule, the “LCI quest for meaning, LS mean difference Psilocybin 10 mg-Placebo” value (Day 84) was 0.4, the “LCI quest for meaning, LS mean difference Psilocybin 25 mg-Placebo” value (Day 84) was 0.4 and the “LCI quest for meaning, LS mean difference Psilocybin (25 mg-10 mg)” value (Day 84) was −0.0. The “LCI religiousness, LS mean difference Psilocybin 10 mg-Placebo” value (Day 84) was −0.0, the “LCI religiousness, LS mean difference Psilocybin 25 mg-Placebo” value (Day 84) was 0.0 and the “LCI religiousness, LS mean difference Psilocybin (25 mg-10 mg)” value (Day 84) was 0.1. For the same molecule, the “LCI self-acceptance, LS mean difference Psilocybin 10 mg-Placebo” value (Day 84) was 0.5, the “LCI self-acceptance, LS mean difference Psilocybin 25 mg-Placebo” value (Day 84) was 0.5 and the “LCI self-acceptance, LS mean difference Psilocybin (25 mg-10 mg)” value (Day 84) was 0.0. The “LCI spirituality, LS mean difference Psilocybin 10 mg-Placebo” value (Day 84) was 0.4, the “LCI spirituality, LS mean difference Psilocybin 25 mg-Placebo” value (Day 84) was 0.4 and the “LCI spirituality, LS mean difference Psilocybin (25 mg-10 mg)” value (Day 84) was −0.0. For the same molecule, the “LCI-absolute change, LS mean difference Psilocybin 10 mg-Placebo” value (Day 84) was 0.4, the “LCI-absolute change, LS mean difference Psilocybin 25 mg-Placebo” value (Day 84) was 0.4 and the “LCI-absolute change, LS mean difference Psilocybin (25 mg-10 mg)” value (Day 84) was −0.0. For the same molecule, the “LCI appreciation for life, LS mean” value (Psilocybin 10 mg, Day 7) was 0.8, the “LCI appreciation of death, LS mean” value (Psilocybin 10 mg, Day 7) was 0.2 and the “LCI concern for others, LS mean” value (Psilocybin 10 mg, Day 7) was 0.5. The “LCI concern for worldly achievement, LS mean” value (Psilocybin 10 mg, Day 7) was −0.2, the “LCI concern social, LS mean” value (Psilocybin 10 mg, Day 7) was 0.2 and the “LCI quest for meaning, LS mean” value (Psilocybin 10 mg, Day 7) was 0.5. The “LCI religiousness, LS mean” value (Psilocybin 10 mg, Day 7) was −0.0, the “LCI self-acceptance, LS mean” value (Psilocybin 10 mg, Day 7) was 0.8 and the “LCI spirituality, LS mean” value (Psilocybin 10 mg, Day 7) was 0.5. The “LCI-absolute change, LS mean” value (Psilocybin 10 mg, Day 7) was 0.5, the “LCI appreciation for life, LS mean” value (Psilocybin 10 mg, Day 84) was 0.8 and the “LCI appreciation of death, LS mean” value (Psilocybin 10 mg, Day 84) was 0.2. For the same molecule, the “LCI concern for others, LS mean” value (Psilocybin 10 mg, Day 84) was 0.5, the “LCI concern for worldly achievement, LS mean” value (Psilocybin 10 mg, Day 84) was −0.2 and the “LCI concern social, LS mean” value (Psilocybin 10 mg, Day 84) was 0.2. For the same molecule, the “LCI quest for meaning, LS mean” value (Psilocybin 10 mg, Day 84) was 0.5, the “LCI religiousness, LS mean” value (Psilocybin 10 mg, Day 84) was −0.0 and the “LCI self-acceptance, LS mean” value (Psilocybin 10 mg, Day 84) was 0.6. The “LCI spirituality, LS mean” value (Psilocybin 10 mg, Day 84) was 0.5, the “LCI-absolute change, LS mean” value (Psilocybin 10 mg, Day 84) was 0.5 and the “LCI appreciation for life, LS mean” value (Psilocybin 25 mg, Day 7) was 0.6. The “LCI appreciation of death, LS mean” value (Psilocybin 25 mg, Day 7) was 0.1, the “LCI concern for others, LS mean” value (Psilocybin 25 mg, Day 7) was 0.6 and the “LCI concern for worldly achievement, LS mean” value (Psilocybin 25 mg, Day 7) was −0.2. For the same molecule, the “LCI concern social, LS mean” value (Psilocybin 25 mg, Day 7) was 0.2, the “LCI quest for meaning, LS mean” value (Psilocybin 25 mg, Day 7) was 0.5 and the “LCI religiousness, LS mean” value (Psilocybin 25 mg, Day 7) was 0.0. The “LCI self-acceptance, LS mean” value (Psilocybin 25 mg, Day 7) was 0.6, the “LCI spirituality, LS mean” value (Psilocybin 25 mg, Day 7) was 0.4 and the “LCI-absolute change, LS mean” value (Psilocybin 25 mg, Day 7) was 0.4. The “LCI appreciation for life, LS mean” value (Psilocybin 25 mg, Day 84) was 0.7, the “LCI appreciation of death, LS mean” value (Psilocybin 25 mg, Day 84) was 0.3 and the “LCI concern for others, LS mean” value (Psilocybin 25 mg, Day 84) was 0.7. For the same molecule, the “LCI concern for worldly achievement, LS mean” value (Psilocybin 25 mg, Day 84) was −0.1, the “LCI concern social, LS mean” value (Psilocybin 25 mg, Day 84) was 0.2 and the “LCI quest for meaning, LS mean” value (Psilocybin 25 mg, Day 84) was 0.5. For the same molecule, the “LCI religiousness, LS mean” value (Psilocybin 25 mg, Day 84) was 0.0, the “LCI self-acceptance, LS mean” value (Psilocybin 25 mg, Day 84) was 0.6 and the “LCI spirituality, LS mean” value (Psilocybin 25 mg, Day 84) was 0.5. The “LCI-absolute change, LS mean” value (Psilocybin 25 mg, Day 84) was 0.5.
